Assay results: US6552196B2, “Quinolone carboxylic acid derivatives” (Dong Wha Pharmaceutical Industrial Co., Ltd., priority 1997, dated 2003)

Tests used:
Type in all cases: cell-based
[1] = system: Staphylococcus aureus 503; assay: In vitro antibacterial activity (MIC), agar dilution; details: 2-fold agar dilution, Muller-Hinton agar, 18 hours at 37° C., read-out: minimum inhibitory concentration (MIC)
Experimental: (§1) 10^7 cfu/ml of bacteria were inoculated and cultured for 18 hours at 37° C. and then the antibacterial activities were measured. For the methicillin resistant strains the activities were measured after 48 hours of cultivation at 30° C. Hoechst Standard strains were used for the testings.

[2] = system: Salmonella typhimurium; assay: as above; details: Salmonella enterica, 2-fold agar dilution, Muller-Hinton agar, 18 hours at 37° C., read-out: minimum inhibitory concentration (MIC)
Experimental: as §1

[3] = system: Esherichia coli DC2; assay: as above; details: 2-fold agar dilution, Muller-Hinton agar, 18 hours at 37° C., read-out: minimum inhibitory concentration (MIC)
Experimental: as §1

[4] = system: Esherichia coli TEM; assay: as above; details: 2-fold agar dilution, Muller-Hinton agar, 18 hours at 37° C., read-out: minimum inhibitory concentration (MIC)
Experimental: as §1

[5] = system: Esherichia coli DC0; assay: as above; details: 2-fold agar dilution, Muller-Hinton agar, 18 hours at 37° C., read-out: minimum inhibitory concentration (MIC)
Experimental: as §1

[6] = system: Esherichia coli 1507E; assay: as above; details: 2-fold agar dilution, Muller-Hinton agar, 18 hours at 37° C., read-out: minimum inhibitory concentration (MIC)
Experimental: as §1

[7] = system: Pseudomonas aeruginosa 1771M; assay: as above; details: Pseudomonas aeruginosa, 1771M, 18 h, read-out: minimum inhibitory concentration (MIC)
Experimental: as §1

[8] = system: Staphylococcus aureus SG511; assay: as above; details: 2-fold agar dilution, Muller-Hinton agar, 18 hours at 37° C., read-out: minimum inhibitory concentration (MIC)
Experimental: as §1

[9] = system: Streptococcus pyogens 308A; assay: as above; details: 2-fold agar dilution, Muller-Hinton agar, 18 hours at 37° C., read-out: minimum inhibitory concentration (MIC)
Experimental: as §1

[10] = system: Pseudomonas aeruginosa 1771; assay: as above; details: 2-fold agar dilution, Muller-Hinton agar, 18 hours at 37° C., read-out: minimum inhibitory concentration (MIC)
Experimental: as §1

[11] = system: Pseudomonas aeruginosa 9027; assay: as above; details: 2-fold agar dilution, Muller-Hinton agar, 18 hours at 37° C., read-out: minimum inhibitory concentration (MIC)
Experimental: as §1

[12] = system: Streptococcus faecium MD 8b; assay: as above; details: Enterococcus faecium, MD8B, 2-fold agar dilution, Muller-Hinton agar, 18 hours at 37° C., read-out: minimum inhibitory concentration (MIC)
Experimental: as §1

[13] = system: Streptococcus pyogens 77A; assay: as above; details: 2-fold agar dilution, Muller-Hinton agar, 18 hours at 37° C., read-out: minimum inhibitory concentration (MIC)
Experimental: as §1

[14] = system: Pseudomonas aeruginosa 1592E; assay: as above; details: 2-fold agar dilution, Muller-Hinton agar, 18 hours at 37° C., read-out: minimum inhibitory concentration (MIC)
Experimental: as §1

[15] = system: Klebsiella aerogenes 1522E; assay: as above; details: 2-fold agar dilution, Muller-Hinton agar, 18 hours at 37° C., read-out: minimum inhibitory concentration (MIC)
Experimental: as §1

[16] = system: Staphylococcus aureus 285; assay: as above; details: 2-fold agar dilution, Muller-Hinton agar, 18 hours at 37° C., read-out: minimum inhibitory concentration (MIC)
Experimental: as §1

[17] = system: Klebsiella oxytoca 1082E; assay: as above; details: 2-fold agar dilution, Muller-Hinton agar, 18 hours at 37° C., read-out: minimum inhibitory concentration (MIC)
Experimental: as §1

[18] = system: Esherichia coli 078; assay: as above; details: 2-fold agar dilution, Muller-Hinton agar, 18 hours at 37° C., read-out: minimum inhibitory concentration (MIC)
Experimental: as §1

[19] = system: Staphylococcus aureus 121E; assay: In vitro antibacterial activity against resistant strains (MIC); details: resistant strain Staphylococcus aureus 121E; 2-fold agar dilution; methicillin resistant strains 48 hours at 30° C.; read-out: minimum inhibitory concentration (MIC)
Experimental: as §1

[20] = system: Staphylococcus epidermidis 291; assay: as above; details: resistant strain Staphylococcus epidermidis 291; 2-fold agar dilution; methicillin resistant strains 48 hours at 30° C.; read-out: minimum inhibitory concentration (MIC)
Experimental: as §1

[21] = system: Staphylococcus aureus 293; assay: as above; details: resistant strain Staphylococcus aureus 293; 2-fold agar dilution; methicillin resistant strains 48 hours at 30° C.; read-out: minimum inhibitory concentration (MIC)
Experimental: as §1

[22] = system: Staphylococcus aureus 694E; assay: as above; details: resistant strain Staphylococcus aureus 694E; 2-fold agar dilution; methicillin resistant strains 48 hours at 30° C.; read-out: minimum inhibitory concentration (MIC)
Experimental: as §1

[23] = system: Staphylococcus aureus 208E; assay: as above; details: resistant strain Staphylococcus aureus 208E; 2-fold agar dilution; methicillin resistant strains 48 hours at 30° C.; read-out: minimum inhibitory concentration (MIC)
Experimental: as §1

[24] = system: Staphylococcus aureus 303; assay: as above; details: resistant strain Staphylococcus aureus 303; 2-fold agar dilution; methicillin resistant strains 48 hours at 30° C.; read-out: minimum inhibitory concentration (MIC)
Experimental: as §1

[25] = system: Staphylococcus aureus 697E; assay: as above; details: resistant strain Staphylococcus aureus 697E; 2-fold agar dilution; methicillin resistant strains 48 hours at 30° C.; read-out: minimum inhibitory concentration (MIC)
Experimental: as §1

[26] = system: Staphylococcus aureus 241; assay: as above; details: resistant strain Staphylococcus aureus 241; 2-fold agar dilution; methicillin resistant strains 48 hours at 30° C.; read-out: minimum inhibitory concentration (MIC)
Experimental: as §1

[27] = system: Staphylococcus aureus 88E; assay: as above; details: resistant strain Staphylococcus aureus 88E; 2-fold agar dilution; methicillin resistant strains 48 hours at 30° C.; read-out: minimum inhibitory concentration (MIC)
Experimental: as §1

[28] = system: Staphylococcus aureus 701E; assay: as above; details: resistant strain Staphylococcus aureus 701E; 2-fold agar dilution; methicillin resistant strains 48 hours at 30° C.; read-out: minimum inhibitory concentration (MIC)
Experimental: as §1

[29] = system: Staphylococcus aureus 8236; assay: as above; details: resistant strain Staphylococcus aureus 8236; 2-fold agar dilution; methicillin resistant strains 48 hours at 30° C.; read-out: minimum inhibitory concentration (MIC)
Experimental: as §1

[30] = system: Staphylococcus aureus 179; assay: as above; details: resistant strain Staphylococcus aureus 179; 2-fold agar dilution; methicillin resistant strains 48 hours at 30° C.; read-out: minimum inhibitory concentration (MIC)
Experimental: as §1

[31] = system: Staphylococcus aureus 692E; assay: as above; details: resistant strain Staphylococcus aureus 692E; 2-fold agar dilution; methicillin resistant strains 48 hours at 30° C.; read-out: minimum inhibitory concentration (MIC)
Experimental: as §1

[32] = system: Staphylococcus aureus 690E; assay: as above; details: resistant strain Staphylococcus aureus 690E; 2-fold agar dilution; methicillin resistant strains 48 hours at 30° C.; read-out: minimum inhibitory concentration (MIC)
Experimental: as §1

[33] = system: Staphylococcus aureus 695E; assay: as above; details: resistant strain Staphylococcus aureus 695E; 2-fold agar dilution; methicillin resistant strains 48 hours at 30° C.; read-out: minimum inhibitory concentration (MIC)
Experimental: as §1

[34] = system: Staphylococcus aureus 693E; assay: as above; details: resistant strain Staphylococcus aureus 693E; 2-fold agar dilution; methicillin resistant strains 48 hours at 30° C.; read-out: minimum inhibitory concentration (MIC)
Experimental: as §1

[35] = system: Staphylococcus aureus 703E; assay: as above; details: resistant strain Staphylococcus aureus 703E; 2-fold agar dilution; methicillin resistant strains 48 hours at 30° C.; read-out: minimum inhibitory concentration (MIC)
Experimental: as §1

[36] = system: Staphylococcus aureus 256E; assay: as above; details: resistant strain Staphylococcus aureus 256E; 2-fold agar dilution; methicillin resistant strains 48 hours at 30° C.; read-out: minimum inhibitory concentration (MIC)
Experimental: as §1

[37] = system: Staphylococcus epidermidis 178; assay: as above; details: resistant strain Staphylococcus epidermidis 178; 2-fold agar dilution; methicillin resistant strains 48 hours at 30° C.; read-out: minimum inhibitory concentration (MIC)
Experimental: as §1

Measured: MIC

O=C(O)c1cn(C2CC2)c2cc(N3CCNCC3)c(F)cc2c1=O [Ciprofloxacin, ciprofloxacin, reference compound]
0.781 mg/L: [13] | [16] | [19] | [23] | [27] | [36]
0.004 mg/L: [18]
0.049 mg/L: [3] | [7]
12.5 mg/L: [21] | [24] | [26] | [29] | [30]
50 mg/L: [20] | [37]
3.12 mg/L: [9]
0.013 mg/L: [15]
0.007 mg/L: [2] | [4] | [6]
0.195 mg/L: [5] | [8] | [10] | [11] | [14]
< 0.002 mg/L: [17]
0.391 mg/L: all other assays above
